Results from PubChem BioAssay (NCI).
“And” between values parts separate entries of the source, which are not always exact repeats. Equal entries are not always repeated.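 Briefly, cells in 96-well plates were exposed to five compound concentrations for 48 h, and endpoints were estimated by linear interpolation. GI50: concentration for 50% inhibition of growth. The concentration for full growth arrest is given as TGI.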

Key:
Assay in all cases: NCI anticancer screen, dose series, 48 h
786-0 renal = system: 786-0 renal
A498 renal = system: A498 renal
A549 NSCLC = system: A549 NSCLC
ACHN renal = system: ACHN renal
BT-549 breast = system: BT-549 breast
CAKI-1 renal = system: CAKI-1 renal
CCRF-CEM leukemia = system: CCRF-CEM leukemia
COLO 205 colon = system: COLO 205 colon
DU-145 prostate = system: DU-145 prostate
EKVX NSCLC = system: EKVX NSCLC
HCC-2998 colon = system: HCC-2998 colon
HCT-116 colon = system: HCT-116 colon
HCT-15 colon = system: HCT-15 colon
HL-60(TB) leukemia = system: HL-60(TB) leukemia
HOP-62 NSCLC = system: HOP-62 NSCLC
HOP-92 NSCLC = system: HOP-92 NSCLC
HS 578T breast = system: HS 578T breast
HT29 colon = system: HT29 colon
IGROV1 ovarian = system: IGROV1 ovarian
K-562 leukemia = system: K-562 leukemia
KM12 colon = system: KM12 colon
LOX IMVI melanoma = system: LOX IMVI melanoma
M14 melanoma = system: M14 melanoma
MALME-3M melanoma = system: MALME-3M melanoma
MCF7 breast = system: MCF7 breast
MDA-MB-231 breast = system: MDA-MB-231 breast
MDA-MB-435 = system: MDA-MB-435
MOLT-4 leukemia = system: MOLT-4 leukemia
NCI-H226 lung = system: NCI-H226 lung
NCI-H23 lung = system: NCI-H23 lung
NCI-H460 lung = system: NCI-H460 lung
NCI-H522 lung = system: NCI-H522 lung
NCI/ADR-RES ovarian = system: NCI/ADR-RES ovarian
OVCAR-3 ovarian = system: OVCAR-3 ovarian
OVCAR-4 ovarian = system: OVCAR-4 ovarian
OVCAR-5 ovarian = system: OVCAR-5 ovarian
OVCAR-8 ovarian = system: OVCAR-8 ovarian
PC-3 prostate = system: PC-3 prostate
RPMI-8226 leukemia = system: RPMI-8226 leukemia
RXF 393 renal = system: RXF 393 renal
SF-268 CNS = system: SF-268 CNS
SF-295 CNS = system: SF-295 CNS
SF-539 CNS = system: SF-539 CNS
SK-MEL-2 melanoma = system: SK-MEL-2 melanoma
SK-MEL-28 melanoma = system: SK-MEL-28 melanoma
SK-MEL-5 melanoma = system: SK-MEL-5 melanoma
SK-OV-3 ovarian = system: SK-OV-3 ovarian
SN12C renal = system: SN12C renal
SNB-19 CNS = system: SNB-19 CNS
SNB-75 CNS = system: SNB-75 CNS
SR leukemia = system: SR leukemia
SW-620 colon = system: SW-620 colon
T-47D breast = system: T-47D breast
TK-10 renal = system: TK-10 renal
U251 CNS = system: U251 CNS
UACC-257 melanoma = system: UACC-257 melanoma
UACC-62 melanoma = system: UACC-62 melanoma
UO-31 renal = system: UO-31 renal

With `CN1CCN(c2nc(C3=C(c4c[nH]c5ccccc45)C(=O)NC3=O)c3ccccc3n2)CC1` the GI50 (786-0 renal) was 15.7 µM and 18.3 µM, the TGI (786-0 renal) was 39.6 µM and 36.9 µM and the GI50 (A498 renal) was 12.9 µM and 15.4 µM. The TGI (A498 renal) was 24.3 µM and 29.7 µM, the GI50 (A549 NSCLC) was 21.2 µM and 18.4 µM and the TGI (A549 NSCLC) was 65 µM and 48.9 µM. The GI50 (ACHN renal) was 14.9 µM and 20.4 µM, the TGI (ACHN renal) was 52.4 µM and > 100 µM and the GI50 (BT-549 breast) was 8.91 µM and 14.3 µM. For the same compound, the TGI (BT-549 breast) was 20.8 µM and 29.3 µM, the GI50 (CAKI-1 renal) was 9.47 µM and 16.9 µM and the TGI (CAKI-1 renal) was 54.5 µM and 46.1 µM. The GI50 (CCRF-CEM leukemia) was 28.9 µM and 14 µM, the TGI (CCRF-CEM leukemia) was 65 µM and 62.8 µM and the GI50 (COLO 205 colon) was 8 µM and 11.4 µM. The TGI (COLO 205 colon) was 17.3 µM and 24.5 µM, the GI50 (DU-145 prostate) was 23.3 µM and 17.9 µM and the TGI (DU-145 prostate) was 65 µM and 38 µM. For the same compound, the GI50 (EKVX NSCLC) was 20.4 µM, the TGI (EKVX NSCLC) was 65 µM and the GI50 (HCC-2998 colon) was 11.2 µM and 19 µM. The TGI (HCC-2998 colon) was 22.6 µM and 36.7 µM, the GI50 (HCT-116 colon) was 10.3 µM and 9.78 µM and the TGI (HCT-116 colon) was 31.9 µM and 37.9 µM. The GI50 (HCT-15 colon) was 12.9 µM and 19.5 µM, the TGI (HCT-15 colon) was 60.2 µM and > 100 µM and the GI50 (HL-60(TB) leukemia) was 12.3 µM and 15.1 µM. For the same compound, the TGI (HL-60(TB) leukemia) was 36.6 µM and 35.6 µM, the GI50 (HOP-62 NSCLC) was 13.6 µM and 19.8 µM and the TGI (HOP-62 NSCLC) was 65 µM and 42.9 µM. The GI50 (HOP-92 NSCLC) was 30.5 µM and 4.23 µM, the TGI (HOP-92 NSCLC) was 65 µM and 17.4 µM and the GI50 (HS 578T breast) was 9.01 µM and 14.6 µM. The TGI (HS 578T breast) was 27 µM and 38.3 µM, the GI50 (HT29 colon) was 14 µM and 12.3 µM and the TGI (HT29 colon) was 65 µM and 43.4 µM. For the same compound, the GI50 (IGROV1 ovarian) was 21.4 µM and 21 µM, the TGI (IGROV1 ovarian) was 65 µM and 41.3 µM and the GI50 (K-562 leukemia) was 11.9 µM and 12.6 µM. The TGI (K-562 leukemia) was 65 µM and 49.2 µM, the GI50 (KM12 colon) was 4.43 µM and 4.8 µM and the TGI (KM12 colon) was 65 µM and 24.3 µM. For the same compound, the GI50 (LOX IMVI melanoma) was 13.1 µM and 17.3 µM, the TGI (LOX IMVI melanoma) was 24.5 µM and 36.4 µM and the GI50 (M14 melanoma) was 10.5 µM and 17 µM. The TGI (M14 melanoma) was 20.5 µM and 37.6 µM, the GI50 (MALME-3M melanoma) was 10 µM and 10.2 µM and the TGI (MALME-3M melanoma) was 19.9 µM and 24.3 µM. The GI50 (MCF7 breast) was 10.1 µM and 16.6 µM, the TGI (MCF7 breast) was 27.9 µM and 40 µM and the GI50 (MDA-MB-231 breast) was 22.2 µM and 17.3 µM. The TGI (MDA-MB-231 breast) was 60.6 µM and 39.4 µM, the GI50 (MDA-MB-435) was 9.08 µM and 12.4 µM and the TGI (MDA-MB-435) was 19.4 µM and 26.1 µM. The GI50 (MOLT-4 leukemia) was 7.61 µM and 10.2 µM, the TGI (MOLT-4 leukemia) was 35.9 µM and 54.8 µM and the GI50 (NCI-H226 lung) was 12.4 µM and 28.3 µM. For the same compound, the TGI (NCI-H226 lung) was 37.9 µM and 75.3 µM, the GI50 (NCI-H23 lung) was 14.8 µM and 17.6 µM and the TGI (NCI-H23 lung) was 39.9 µM and 41.4 µM. The GI50 (NCI-H460 lung) was 15.2 µM and 19.2 µM, the TGI (NCI-H460 lung) was 33.4 µM and 35.9 µM and the GI50 (NCI-H522 lung) was 11.3 µM and 15.1 µM. The TGI (NCI-H522 lung) was 23.7 µM and 32.9 µM, the GI50 (NCI/ADR-RES ovarian) was 25.4 µM and the TGI (NCI/ADR-RES ovarian) was 65 µM. For the same compound, the GI50 (OVCAR-3 ovarian) was 16.2 µM and 19.4 µM, the TGI (OVCAR-3 ovarian) was 44.8 µM and 41.6 µM and the GI50 (OVCAR-4 ovarian) was 18.9 µM and 16.2 µM. For the same compound, the TGI (OVCAR-4 ovarian) was 65 µM and 69.1 µM, the GI50 (OVCAR-5 ovarian) was 28.7 µM and 34.5 µM and the TGI (OVCAR-5 ovarian) was 65 µM and > 100 µM. For the same compound, the GI50 (OVCAR-8 ovarian) was 17.2 µM and 18.4 µM, the TGI (OVCAR-8 ovarian) was 65 µM and 57.5 µM and the GI50 (PC-3 prostate) was 27.2 µM and 18.3 µM. For the same compound, the TGI (PC-3 prostate) was 65 µM and 43.6 µM, the GI50 (RPMI-8226 leukemia) was 12.6 µM and the TGI (RPMI-8226 leukemia) was 37.6 µM. For the same compound, the GI50 (RXF 393 renal) was 12.8 µM and 16.3 µM, the TGI (RXF 393 renal) was 22.6 µM and 31.2 µM and the GI50 (SF-268 CNS) was 17.2 µM and 17.7 µM. The TGI (SF-268 CNS) was 40.6 µM and 36.6 µM, the GI50 (SF-295 CNS) was 12.2 µM and 19.6 µM and the TGI (SF-295 CNS) was 25.9 µM and 37.8 µM. The GI50 (SF-539 CNS) was 10.5 µM and 16.8 µM, the TGI (SF-539 CNS) was 19.7 µM and 32.9 µM and the GI50 (SK-MEL-2 melanoma) was 12.8 µM and 20.2 µM. For the same compound, the TGI (SK-MEL-2 melanoma) was 25.8 µM and 38.8 µM, the GI50 (SK-MEL-28 melanoma) was 11.2 µM and 17.7 µM and the TGI (SK-MEL-28 melanoma) was 20.8 µM and 32.8 µM. The GI50 (SK-MEL-5 melanoma) was 11.2 µM and 12.6 µM, the TGI (SK-MEL-5 melanoma) was 20.3 µM and 26 µM and the GI50 (SK-OV-3 ovarian) was 19.5 µM and 16.2 µM. For the same compound, the TGI (SK-OV-3 ovarian) was 65 µM and 45.9 µM, the GI50 (SN12C renal) was 9.03 µM and 12.9 µM and the TGI (SN12C renal) was 28.5 µM and 35.5 µM. The GI50 (SNB-19 CNS) was 27.2 µM and 23.3 µM, the TGI (SNB-19 CNS) was 65 µM and 49.2 µM and the GI50 (SNB-75 CNS) was 4.91 µM and 5.65 µM. For the same compound, the TGI (SNB-75 CNS) was 17.5 µM and 21.6 µM, the GI50 (SR leukemia) was 11.6 µM and the TGI (SR leukemia) was 36.2 µM. For the same compound, the GI50 (SW-620 colon) was 19.8 µM and 19.1 µM, the TGI (SW-620 colon) was 65 µM and 35.9 µM and the GI50 (T-47D breast) was 15.6 µM and 26.3 µM. The TGI (T-47D breast) was 53.4 µM and 82.4 µM, the GI50 (TK-10 renal) was 27.9 µM and 17.5 µM and the TGI (TK-10 renal) was 65 µM and 49 µM. For the same compound, the GI50 (U251 CNS) was 22.5 µM and 13.4 µM, the TGI (U251 CNS) was 65 µM and 27.7 µM and the GI50 (UACC-257 melanoma) was 11.2 µM and 15.7 µM. For the same compound, the TGI (UACC-257 melanoma) was 23.1 µM and 31.3 µM, the GI50 (UACC-62 melanoma) was 14.4 µM and 16.2 µM and the TGI (UACC-62 melanoma) was 35.2 µM and 30.7 µM. For the same compound, the GI50 (UO-31 renal) was 8.2 µM and 11.7 µM and the TGI (UO-31 renal) was 65 µM and 30.1 µM.
